Where two headings read alike, the source gives them in different places.
Biological target: Syk (Homo sapiens, UniProt P43405)
Test: High Throughput Syk Biochemical Assay (KinEASE TR-FRET)
Details: 20 μM ATP, 1 μM biotinylated peptide, 0.015 nM Syk, 30 min at room temperature
In short: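 Two-step endpoint TR-FRET (KinEASE) measured Syk phosphorylation of an XL665-labelled peptide, detected with europium anti-phosphotyrosine antibody. Compounds were serially diluted in DMSO.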

[1] = table 'ALL NEW COMPOUNDS IN 2014', read-out: Syk IC50

IC50 [1] [nM]	IC50 (TABLE D, read-out: IC50) [nM]	Structure (SMILES)
2.25	–	C[C@@H](Oc1nc(-c2ccc3c(c2)NCCN3C)cc2ncn(C3CC3)c12)[C@H]1CNC(=O)C1 [(R)-4-((R)-1-((3-cyclopropyl-6-(1-methyl-1,2,3,4-tetrahydroquinoxalin-6-yl)-3H-imidazo[4,5-c]pyridin-4-yl)oxy)ethyl)pyrrolidin-2-one]
–	31.4	COc1ccc(-c2cn3nc(C)cc3c(O[C@H](C)[C@H]3CNC(=O)C3)n2)cc1OC [(R)-4-((R)-1-((6-(3,4-dimethoxyphenyl)-2-methylpyrazolo[1,5-a]pyrazin-4-yl)oxy)ethyl)pyrrolidin-2-one]
–	1.22	C[C@@H](Oc1nc(-c2cnn(C(C)(C)C)c2)cc2ncn(C(F)F)c12)[C@H]1CNC(=O)C1 [(R)-4-((R)-1-(6-(1-tert-butyl-1H-pyrazol-4-yl)-3-(difluoromethyl)-3H-imidazo[4,5-c]pyridin-4-yloxy)ethyl)pyrrolidin-2-one]
6.12	–	C[C@@H](Oc1nc(-c2ccc3c(C4CC4)n[nH]c3c2)cc2ncn(C3CC3)c12)[C@H]1CNC(=O)C1
–	8.65	CC(C)n1cc(-c2cc3ncn(C)c3c(O[C@H](C)[C@H]3CNC(=O)C3)n2)cn1 [(R)-4-((R)-1-(6-(1-isopropyl-1H-pyrazol-4-yl)-3-methyl-3H-imidazo[4,5-c]pyridin-4-yloxy)ethyl)pyrrolidin-2-one]
8.52	–	C[C@@H](Oc1nc(-c2ccc(C3(O)CC3)cc2)cc2ncn(C3CC3)c12)[C@H]1CNC(=O)C1
–	5.16	C[C@@H](Oc1cc(-c2ccc(N3CCN(C(=O)OC(C)(C)C)CC3)cn2)cc2ncsc12)[C@H]1CNC(=O)C1 (stereo in doubt) [tert-butyl 4-(6-(7-((R)-1-((R)-5-oxopyrrolidin-3-yl)ethoxy)benzo[d]thiazol-5-yl)pyridin-3-yl)piperazine-1-carboxylate]
4.44	–	C[C@@H](Oc1cc(-c2cnn(C)c2)cc2ncn(C3CC3)c12)[C@H]1CNC(=O)C1 [(R)-4-((R)-1-((1-cyclopropyl-5-(1-methyl-1H-pyrazol-4-yl)-1H-benzo[d]imidazol-7-yl)oxy)ethyl)pyrrolidin-2-one]
16.7	–	Cc1nc(-c2cc(O[C@H](C)[C@H]3CNC(=O)C3)c3c(c2)ncn3C2CC2)cs1 [(R)-4-((R)-1-((1-cyclopropyl-5-(2-methylthiazol-4-yl)-1H-benzo[d]imidazol-7-yl)oxy)ethyl)pyrrolidin-2-one]
–	38.2	COc1ccc(-c2cc(O[C@H](C)[C@H]3CNC(=O)C3)c3c(c2)ncn3C)cc1OC [(R)-4-((R)-1-((5-(3,4-dimethoxyphenyl)-1-methyl-1H-benzo[d]imidazol-7-yl)oxy)ethyl)pyrrolidin-2-one]
–	95.8	COc1ccc(-c2cc3nc(C)n(C4CC4)c3c(O[C@H](C)[C@H]3CNC(=O)C3)n2)cc1OC [(R)-4-((R)-1-(3-cyclopropyl-6-(3,4-dimethoxyphenyl)-2-methyl-3H-imidazo[4,5-c]pyridin-4-yloxy)ethyl)pyrrolidin-2-one]
–	14	C[C@@H](Oc1nc(-c2cnn(C3CC3)c2)cc2ncn(C)c12)[C@H]1CNC(=O)C1 [(R)-4-((R)-1-(6-(1-cyclopropyl-1H-pyrazol-4-yl)-3-methyl-3H-imidazo[4,5-c]pyridin-4-yloxy)ethyl)pyrrolidin-2-one]
2.5	–	C[C@@H](Oc1nc(-c2ccc3c(c2)N(C)C(=O)OC3(C)C)cc2ncn(C)c12)[C@H]1CNC(=O)C1 [1,4,4-trimethyl-7-(3-methyl-4-((R)-1-((R)-5-oxopyrrolidin-3-yl)ethoxy)-3H-imidazo[4,5-c]pyridin-6-yl)-1H-benzo[d][1,3]oxazin-2(4H)-one]
–	30.6	C[C@@H](Oc1nc(-c2ccc3c(c2)C(=O)NCCO3)cc2ncn(C)c12)[C@H]1CNC(=O)C1 [7-(3-methyl-4-((R)-1-((R)-5-oxopyrrolidin-3-yl)ethoxy)-3H-imidazo[4,5-c]pyridin-6-yl)-3,4-dihydrobenzo[f][1,4]oxazepin-5(2H)-one]
–	0.697	CC(C)n1cc(-c2cc(O[C@H](C)[C@H]3CNC(=O)C3)c3scnc3c2)cn1 (stereo in doubt) [(R)-4-((R)-1-((5-(1-isopropyl-1H-pyrazol-4-yl)benzo[d]thiazol-7-yl)oxy)ethyl)pyrrolidin-2-one]
–	12.4	Cc1nc2cc(-c3cc4ncn(C)c4c(O[C@H](C)[C@H]4CNC(=O)C4)n3)ccc2s1 [(R)-4-((R)-1-((3-methyl-6-(2-methylbenzo[d]thiazol-5-yl)-3H-imidazo[4,5-c]pyridin-4-yl)oxy)ethyl)pyrrolidin-2-one]
–	7.68	C[C@@H](Oc1cc(-c2cc3c(cnn3C)s2)cc2ncsc12)[C@H]1CNC(=O)C1 [(R)-4-((R)-1-(5-(1-methyl-1H-thieno[3,2-c]pyrazol-5-yl)benzo[d]thiazol-7-yloxy)ethyl)pyrrolidin-2-one]
–	4.03	C[C@@H](Oc1nc(-c2ccc3c(c2)NCCO3)cc2ncn(C)c12)[C@H]1CNC(=O)C1 [(R)-4-((R)-1-(6-(3,4-dihydro-2H-benzo[b][1,4]oxazin-6-yl)-3-methyl-3H-imidazo[4,5-c]pyridin-4-yloxy)ethyl)pyrrolidin-2-one]
–	11.5	C[C@@H](Oc1nc(-c2ccc(N3CCOCC3)nc2)cc2ncn(C)c12)[C@H]1CNC(=O)C1
0.442	–	C[C@@H](Oc1cc(-c2nc(C(C)(C)C)cs2)cc2ncn(C3CC3)c12)[C@H]1CNC(=O)C1 [(R)-4-((R)-1-((5-(4-(tert-butyl)thiazol-2-yl)-1-cyclopropyl-1H-benzo[d]imidazol-7-yl)oxy)ethyl)pyrrolidin-2-one]
–	0.31	C[C@@H](Oc1cc(-c2ccc(N3CCOCC3)cc2)cn2ncc(Cl)c12)[C@H]1CNC(=O)C1 [(R)-4-((R)-1-((3-chloro-6-(4-morpholinophenyl)pyrazolo[1,5-a]pyridin-4-yl)oxy)ethyl)pyrrolidin-2-one]
22.4	–	C[C@@H](Oc1cc(-c2cnn(C)n2)cc2ncn(C3CC3)c12)[C@H]1CNC(=O)C1 [(R)-4-((R)-1-((1-cyclopropyl-5-(2-methyl-2H-1,2,3-triazol-4-yl)-1H-benzo[d]imidazol-7-yl)oxy)ethyl)pyrrolidin-2-one]
–	2.97	C[C@@H](Oc1cc(-c2cc3c(cnn3C)s2)cc2ncsc12)[C@H]1CNC(=O)C1 (stereo in doubt) [(R)-4-((R)-1-((5-(1-methyl-1H-thieno[3,2-c]pyrazol-5-yl)benzo[d]thiazol-7-yl)oxy)ethyl)pyrrolidin-2-one]
–	3.39	COc1ccc(-c2cc3ncn(C(C)C)c3c(O[C@H](C)[C@H]3CNC(=O)C3)n2)cc1OC [(R)-4-((R)-1-(6-(3,4-dimethoxyphenyl)-3-isopropyl-3H-imidazo[4,5-c]pyridin-4-yloxy)ethyl)pyrrolidin-2-one]
–	16.7	COc1ccc(-c2cc3ncn(C)c3c(O[C@H](C)[C@H]3CNC(=O)C3)n2)cc1C#N
–	191	C[C@@H](Oc1cc(-c2cccc(C(F)(F)F)n2)cc2ncn(C)c12)[C@H]1CNC(=O)C1 [(R)-4-((R)-1-((1-methyl-5-(6-(trifluoromethyl)pyridin-2-yl)-1H-benzo[d]imidazol-7-yl)oxy)ethyl)pyrrolidin-2-one]

Structure (SMILES)	IC50 [1] [nM]	IC50 (TABLE D, read-out: IC50) [nM]
C[C@@H](Oc1cc(-c2ccc(N3CC4CC(C3)O4)cn2)cc2ncn(C3CC3)c12)[C@H]1CNC(=O)C1 [(4R)-4-((1R)-1-((5-(5-(6-oxa-3-azabicyclo[3.1.1]heptan-3-yl)pyridin-2-yl)-1-cyclopropyl-1H-benzo[d]imidazol-7-yl)oxy)ethyl)pyrrolidin-2-one]	5.57	–

Reference: patent publication US10005774B2, “Syk inhibitors” (Gilead Sciences, Inc., priority 2013, dated 2018)
